Reference: US20220087987A1, “A METHOD FOR TREATING SWI/SNF COMPLEX-DEFICIENT CANCERS COMPRISING GLUTATHIONE (GSH) METABOLIC PATHWAY INHIBITOR” (National Cancer Center, priority 2018, published 2022)

Legend:
Assay type in all cases: cell-based, human
NOXA = test: Quantitation of NOXA mRNA (quantitative RT-PCR); details: ARID1A-KO cells and ARID1A-deficient cancer cells, 24 hrs
Description: mRNA was extracted and cDNA was synthesized using the SuperPrep (Registered Trademark) Cell Lysis & RT Kit for qPCR (TOYOBO). Aliquots of cDNA were subjected to quantitative PCR using the SuperPrep/THUNDERBIRD Probe qPCR Set (TOYOBO) and TaqMan Gene Expression Assays (Life Technologies). The following gene-specific primer/probe sets were used: NOXA (PMAIP1) (Hs00560402 ml), NRF2 (NFE2L2) (Hs00975961 g_1), GCLC (Hs00155249 ml), GSS (Hs00609286_m1), and SLC7A11 (Hs00921938_m1). PCR was performed in an ABI StepOnePlus Real-Time PCR System (Life Technologies) under the following conditions: denaturation at 95° C. for 15 s, followed by annealing and extension at 60° C. for 30 s (40 cycles). For each sample, the mRNA levels of target genes were normalized against levels of GAPDH mRNA. The target/GAPDH ratios were then normalized against those in control samples using the 2-ΔΔCt method.

[1] = tested on: bile duct cancer cell lines; test: Cell viability of bile duct cancer cell lines; details: treatment for 6 days
Description: (§1) Cell viability was examined by measuring the cellular ATP level using the CellTiter-Glo Luminescent Cell Viability Assay (Promega). To measure cell viability after siRNA-mediated knockdown, cell lines were transfected with siRNAs (25 nM) using Lipofectamine RNAiMAX. After 48 hrs, cells were trypsinized and repeatedly transfected with siRNAs (25 nM) using Lipofectamine RNAiMAX. Cells were trypsinized after a further 48 hrs, counted, and reseeded at the specified density in 96-well plates. To measure cell viability after drug treatment, cells were trypsinized, counted, reseeded at the specified density in 96-well plates, and exposed to the indicated concentrations of drugs. Cell viability was measured using the CellTiter-Glo Luminescent Cell Viability Assay. Luminescence was measured using an Envision Multi-label plate reader (PerkinElmer).

[2] = tested on: ARID1A-KO cells and ARID1A-deficient cancer cells; test: Apoptosis detection (cleaved caspase-3/7, Annexin V)
Description: The Annexin V-FITC/PI Apoptosis Detection Kit (Sigma-Aldrich) was used to detect apoptotic cells. Briefly, the cell pellet was suspended in 1× binding buffer and then incubated with Annexin V-FITC and PI in the dark for 10 min. Fluorescence was analyzed on a Guava flow cytometer (Millipore). Data were analyzed using GuavaSoft software (v. 2.7). Relative ratios of the Annexin V-positive fraction in treated samples were normalized against untreated samples.
GSH, ROS and apoptosis were detected using the GSH/GSSG-Glo Assay (Promega) and/or the GSH-Glo Assay (Promega), the ROS-Glo Assay (Promega), and the Caspase-Glo 3/7 Assay, respectively. To measure levels of GSH, ROS and apoptosis after drug treatment, cells were trypsinized, counted, reseeded at the specified density in 96-well plates and exposed to the indicated concentrations of drugs. After 16-48 hrs, luminescence was measured using an Envision Multi-label plate reader (PerkinElmer). […] Cells were trypsinized after a further 48 hrs, counted, and reseeded at the specified density in 96-well plates. After 72-120 hrs, luminescence was measured using an Envision Multi-label plate reader (PerkinElmer). Cell viability was also measured using the CellTiter-Glo Luminescent Cell Viability Assay (Promega). […] The GSH/GSSG ratio was calculated as the GSH-GSSG signal divided by the GSSG/2 signal. […]

[3] = tested on: SWI/SNF complexes (SMARCA2, SMARCA4, SMARCB1, PBRM1) deficient cancer cells; test: Cell viability of SWI/SNF complex-deficient cancer cell lines; details: treatment for 6 days
Description: as §1

[4] = tested on: TrxR (TrxR1, TrxR2 and TrxR3); test: Detection of TrxR activity; details: 24 hrs
Description: TrxR activity including TrxR1, TrxR2 and TrxR3 was measured using the Thioredoxin Reductase Assay Kit (Abcam). Cells were trypsinized, counted, reseeded at the specified density in 10 cm dishes and exposed to the indicated concentrations of APR-246. After 24 hrs, cells were washed with cold PBS and lysed with buffer containing a proteinase inhibitor. After centrifugation, the supernatant was supplemented with a TrxR inhibitor and incubated for 20 min at 25° C. Absorbance was measured using an Envision Multi-label plate reader (PerkinElmer). Relative TrxR ratios were normalized against untreated samples.

[5] = tested on: uterine cancer cell lines; test: Cell viability of uterine cancer cell lines; details: treatment for 6 days
Description: as §1

ovarian PDCs = test: Cell viability of ovarian patient-derived cancer cells; details: 33 μM APR-246 or 100 μM BSO for 6 days
Description: Tumor samples and ascites were obtained from four ovarian cancer patients who underwent surgery or cell-free and concentrated ascites reinfusion therapy at the National Cancer Center Hospital or Kaname-cho Hospital (Tokyo, Japan) and were cultured in vitro. This protocol was approved by the Institutional Review Board of the National Cancer Center (Tokyo, Japan), and informed consent was obtained from the patients. To establish CCCO219 and CCC1216 PDCs, patient ascites (24 ml) were diluted in two volumes of PBS containing 2 mM EDTA, layered over 15 ml Ficoll-Paque PLUS (GE Healthcare), and centrifuged at 2200 rpm for 30 min. The interphase mononuclear layer was transferred to a fresh conical tube and washed twice with PBS containing 2 mM EDTA. […]
as §1, with “To measure cell viability after siRNA-mediated knockdown, cell lines were transfected with siRNAs (25 nM) using Lipofectamine RNAiMAX. After 48 hrs, cells were trypsinized and repeatedly transfected with siRNAs (25 nM) using Lipofectamine RNAiMAX.” left out

SMILES: COCC1(CO)C(=O)C2CCN1CC2 (centres unmarked) [APR-246]
- mRNA expression of NOXA (NOXA): increased
- IC50 values in ARID1A-deficient versus ARID1A-proficient bile duct cancer cell lines [1]: markedly lower in two ARID1A-deficient cell lines than in two ARID1A-proficient cell lines
- apoptosis (caspase activation, Annexin V) [2]: induced apoptosis
- IC50 values in SWI/SNF complexes deficient versus wild-type cell lines [3]: markedly lower in these SWI/SNF complexes deficient cell lines than in wild-type cell lines
- TrxR activity ([4]; ARID1A-WT or ARID1A-KO HCT116 cells, same concentrations as decrease GSH): did not affect TrxR activity
- TrxR activity at a higher concentration ([4]; HCT116 cells, 50 μM): suppressed TrxR activity
- IC50 values in ARID1A-deficient versus ARID1A-proficient uterine cancer cell lines [5]: markedly lower in three ARID1A-deficient cell lines than in two ARID1A-proficient cell lines
- sensitivity of ARID1A-deficient versus ARID1A-positive PDCs (ovarian PDCs): more sensitive
